Assay results published in paper PMC8765781, “A platform of assays for the discovery of anti-Zika small-molecules with activity in a 3D-bioprinted outer-blood-retina model” (PLoS ONE, 2022).
Where two headings read alike, the source gives them in different places.

Key:
[1] = tested on: ZIKV-RLuc (Cambodian strain FSS13025); experiment: microbe, parasite or virus in culture; format: cell-based, Zika virus
[2] = Zika virus, Vero, read-out: Log AC50 (M) (converted)

| SMILES | CC-v2 (curve class classification v2 of the dose response curve) [1] | Efficacy (difference between neutral response and maximum compound response) [1] | Max Resp (difference between neutral response and compound response for highest compound concentration) [1] | AC50 ([1]; Zika virus, Vero) [M] | AC50 [1, 2] [M] | AC50 (Vero cells) [µM] | Log AC50 (M) (Vero cells) | AC50 [1] [M] | Log AC50 (M) [1] |
| --- | --- | --- | --- | --- | --- | --- | --- | --- | --- |
| CN(C)C1CCN(CCCOc2ccc(-c3ccc(C#N)cc3)cc2)C1 (stereo not drawn) [NCGC00165730-02] | -3 | -68.814 | -57.023 | 3.69e-05 | 3.69e-05 | 36.9 | -4.4327 | – | – |
| COc1cc(C(C)C)c2c(c1)[S+](=O)([O-])N(COc1cc(=O)n3cccc(OCCN4CCCCC4)c3n1)C2=O [NCGC00167751-03] | -2.1 | -105.384 | -99.738 | 2.33e-05 | 2.33e-05 | 23.3 | -4.6327 | – | – |
| O=c1cc(-c2ccc(O)c(O)c2)oc2c(C3O[C@H](CO)[C@H](O)[C@H](O)[C@H]3O)c(O)cc(O)c12 (stereo partly drawn) [NCGC00168934-02] | -2.1 | -106.691 | -100.564 | 1.85e-05 | 1.85e-05 | 18.5 | -4.7327 | – | – |
| C/C=C(\C)C(=O)O[C@H]1CC2C(=C1C)[C@H]1OC(=O)[C@](C)(O)[C@]1(O)[C@H](OC(=O)CCC)C[C@@]2(C)OC(C)=O (stereo partly drawn) [NCGC00169033-03] | -1.1 | -98.201 | -99.812 | 2.29e-06 | 2.29e-06 | – | -5.6408 | – | – |
| CCCCC/C=C/C(=O)CCc1ccc(O)c(OC)c1 [NCGC00169591-02] | -2.1 | -87.809 | -86.687 | 1.85e-05 | 1.85e-05 | 18.5 | -4.7327 | – | – |
| CCCCN(CCCC)CCC(O)c1cc2c(Cl)cc(Cl)cc2c2cc(C(F)(F)F)ccc12 (stereo not drawn) [NCGC00179250-04] | -2.2 | -95.793 | -79.925 | 2.93e-05 | 2.93e-05 | 29.3 | -4.5327 | – | – |
| C[C@@H]1C[C@H]2[C@@H]3CCC4=CC(=O)C=C[C@]4(C)[C@@]3(Cl)[C@@H](O)C[C@]2(C)[C@@]1(OC(=O)c1ccco1)C(=O)CCl [NCGC00179578-03] | -2.1 | -100.838 | -97.726 | 2.33e-05 | 2.33e-05 | 23.3 | -4.6327 | – | – |
| O=C(/C=C/c1ccccc1)CC(O)CCc1ccccc1 (stereo not drawn) [NCGC00180705-02] | -2.2 | -46.506 | -73.055 | 2.33e-05 | 2.33e-05 | 23.3 | -4.6327 | – | – |
| CC1(C)CCC(C)(C)c2cc(NC(=O)c3ccc(C(=O)O)cc3)ccc21 [NCGC00181111-01] | -3 | -105.549 | -80.478 | 3.69e-05 | 3.69e-05 | 36.9 | -4.4327 | – | – |
| CC1(C)CCC(C)(C)c2cc(NC(=O)c3ccc(C(=O)O)cc3)ccc21 [NCGC00181111-02] | -2.1 | -104.922 | -87.275 | – | – | 36.9 | -4.4327 | 3.69e-05 | -4.4327 |
